“Also recorded” adds a separate entry of the source. Structures can show the parent of a compound that is named as a salt.
Columns and labels:
Assay type in all cases: physicochemical
[1] = Moisture absorption stability comparative test at 50° C./70% RH
Procedure: Moisture Absorption Stability Comparative Test at 50° C./70% RH
A 100-mg weight of each of the crystals of compounds (3) and (4) obtained in Reference Examples 2 and 3, respectively, and the compound (2) of the present invention obtained in an Example was weighed out in a plastic container and allowed to stand under 50° C./70% RH conditions in a thermo-hygrostat chamber (IH400 from Yamato Scientific Co., Ltd.).

[2] = Moisture absorption stability comparative test in the ambient atmosphere; details: ambient atmosphere 25° C.-28° C./67%-83% RH; for appearance (moisture absorption): Day 7
Procedure: Moisture Absorption Stability Comparative Test in the Ambient Atmosphere
About 100 mg of each of the compound (1) obtained in Reference Example 1 and the compound (2) of the present invention obtained in an Example was weighed out in a plastic container and allowed to stand in the ambient atmosphere (25° C.-28° C./67%-83% RH), while minimizing the influence of wind pressure, foreign matter entry, and the like from above and all directions, for 7 days. On Day 0 and Day 7, samples were weighed and examined for appearance.

[3] = Water solubility comparative test; details: for transparency of aqueous solution by visual observation: about 100 mg in 2 mL purified water (5% aqueous solution), room temperature; for precipitate in aqueous solution: about 100 mg in 2 mL purified water, 1 day later
Procedure: Water Solubility Comparative Test
About 100 mg of each of the compound (1) of Reference Example 1 and the crystal of the compound (2) of the present invention was weighed out in a glass vial, 2 mL of purified water was added, and the mixture was vigorously shaken in an airtight state. After being allowed to stand until the liquid surface fluctuation ceased, the aqueous solution was examined for transparency by visual observation at room temperature.

[4] = Heat stability comparative test; details: 70° C., airtight glass vial
Procedure: Heat Stability Comparative Test
About 20 mg of each of the compound (1) of Reference Example 1 and the crystal of the compound (2) of the present invention obtained in an Example was weighed out in a glass vial and stored in a thermostat chamber kept at 70° C. in an airtight state (NA-100N Incubator from NISSIN) for 14 days. On Day 0, Day 7, and Day 14, compound (1) and the compound (2) of the present invention were examined for appearance and purity (HPLC).

Row | Structure (SMILES) | appearance change due to moisture absorption ([1]; after 1 hour of standing) | appearance (moisture absorption) [2] | percent increase in weight ([2]; Day 7, about 100 mg solid) | transparency of aqueous solution by visual observation [3] | precipitate in aqueous solution [3] | weight increase ([1]; after 1 hour of standing, 100 mg solid) | change (appearance, weight) after prolonged standing ([1]; after 3 days of standing) | appearance and purity (HPLC) (heat stability) ([4]; Day 14) | transparency of aqueous solution by visual observation ([3]; monohydrochloride) | appearance / property (heat stability) ([4]; Day 7, monohydrochloride)
1 | C[C@H](CNCCc1ccccc1)NS(=O)(=O)c1ccc2cnccc2c1.Cl.Cl [compound (3), (R)—N-{1-(phenetylamino)propan-2-yl}isoquinoline-6-sulfonamide dihydrochloride, reference compound] | marked appearance change due to moisture absorption |  |  |  |  |  |  |  |  | 
2 | C[C@H](CNC[C@H](C)c1ccccc1)NS(=O)(=O)c1ccc2cnccc2c1.Cl.Cl [compound (4), N—[(R)-1-{(R)-2-phenyipropylamino}propan-2-yl]isoquinoline-6-sulfonamide dihydrochloride, reference compound] | marked appearance change due to moisture absorption |  |  |  |  |  |  |  |  | 
3 | C[C@H](CNC[C@@](C)(O)c1ccccc1)NS(=O)(=O)c1ccc2cnccc2c1 [compound (2), N—[(R)-1-{(S)-2-hydroxy-2-phenylpropylamino}propan-2-yl]isoquinoline-6-sulfonamide dihydrochloride anhydride] | no appearance change | no weight gain or appearance change | did not at all exhibit any weight change; also recorded: no weight gain | extremely clear, showing complete dissolution; also recorded: colorless and clear | no precipitate was found | no appearance change nor weight gain; also recorded: did not at all exhibit any weight change | no change was observed | stable, with no change in appearance nor decomposition; also recorded: stable |  | 
4 | C[C@H](CNC[C@@](C)(O)c1ccccc1)NS(=O)(=O)c1ccc2cnccc2c1.Cl [compound (1), N—[(R)-1-{(S)-2-hydroxy-2-phenylpropylamino}propan-2-yl]isoquinoline-6-sulfonamide monohydrochloride, reference compound] |  | evident moisture absorption phenomenon |  |  | a precipitate was found |  |  |  | translucent; also recorded: translucent and had not dissolved completely | marked property degradation; also recorded: unstable with an evident change in appearance
